Source: PubChem BioAssay (NCI)
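Five concentrations, 48 hours, 96-well plates. TGI: total growth inhibition.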

Tests used:
Assay in all cases: inhibition of tumour cell growth, NCI panel, 48 h
786-0 renal = test system: 786-0 renal
A549 NSCLC = test system: A549 NSCLC
ACHN renal = test system: ACHN renal
BT-549 breast = test system: BT-549 breast
CAKI-1 renal = test system: CAKI-1 renal
CCRF-CEM leukemia = test system: CCRF-CEM leukemia
COLO 205 colon = test system: COLO 205 colon
DU-145 prostate = test system: DU-145 prostate
EKVX NSCLC = test system: EKVX NSCLC
HCT-116 colon = test system: HCT-116 colon
HCT-15 colon = test system: HCT-15 colon
HL-60(TB) leukemia = test system: HL-60(TB) leukemia
HOP-62 NSCLC = test system: HOP-62 NSCLC
HOP-92 NSCLC = test system: HOP-92 NSCLC
HT29 colon = test system: HT29 colon
IGROV1 ovarian = test system: IGROV1 ovarian
K-562 leukemia = test system: K-562 leukemia
KM12 colon = test system: KM12 colon
LOX IMVI melanoma = test system: LOX IMVI melanoma
M14 melanoma = test system: M14 melanoma
MALME-3M melanoma = test system: MALME-3M melanoma
MCF7 breast = test system: MCF7 breast
MDA-MB-231 breast = test system: MDA-MB-231 breast
MDA-MB-435 = test system: MDA-MB-435
MDA-N = test system: MDA-N
MOLT-4 leukemia = test system: MOLT-4 leukemia
NCI-H226 lung = test system: NCI-H226 lung
NCI-H23 lung = test system: NCI-H23 lung
NCI-H460 lung = test system: NCI-H460 lung
NCI-H522 lung = test system: NCI-H522 lung
NCI/ADR-RES ovarian = test system: NCI/ADR-RES ovarian
OVCAR-3 ovarian = test system: OVCAR-3 ovarian
OVCAR-4 ovarian = test system: OVCAR-4 ovarian
OVCAR-5 ovarian = test system: OVCAR-5 ovarian
OVCAR-8 ovarian = test system: OVCAR-8 ovarian
PC-3 prostate = test system: PC-3 prostate
RPMI-8226 leukemia = test system: RPMI-8226 leukemia
RXF 393 renal = test system: RXF 393 renal
SF-268 CNS = test system: SF-268 CNS
SF-295 CNS = test system: SF-295 CNS
SF-539 CNS = test system: SF-539 CNS
SK-MEL-2 melanoma = test system: SK-MEL-2 melanoma
SK-MEL-5 melanoma = test system: SK-MEL-5 melanoma
SK-OV-3 ovarian = test system: SK-OV-3 ovarian
SN12C renal = test system: SN12C renal
SNB-75 CNS = test system: SNB-75 CNS
SR leukemia = test system: SR leukemia
SW-620 colon = test system: SW-620 colon
T-47D breast = test system: T-47D breast
TK-10 renal = test system: TK-10 renal
U251 CNS = test system: U251 CNS
UACC-257 melanoma = test system: UACC-257 melanoma
UACC-62 melanoma = test system: UACC-62 melanoma
UO-31 renal = test system: UO-31 renal
HCC-2998 colon = test system: HCC-2998 colon
HS 578T breast = test system: HS 578T breast
SK-MEL-28 melanoma = test system: SK-MEL-28 melanoma
SNB-19 CNS = test system: SNB-19 CNS

Measured: TGI

Cc1c(N2C(=O)/C(=C/c3ccc(Cl)cc3)N=C2c2ccccc2)c(=O)n(-c2ccccc2)n1C
73.6 µM: SF-539 CNS
35.6 µM: LOX IMVI melanoma
47.1 µM: UACC-62 melanoma
63.4 µM: EKVX NSCLC
99.4 µM: A549 NSCLC
42.8 µM: UACC-257 melanoma
57 µM: HL-60(TB) leukemia
76.8 µM: RXF 393 renal
30.1 µM: COLO 205 colon
93.7 µM: UO-31 renal
43.8 µM: MDA-MB-435
80.3 µM: SNB-75 CNS
44.8 µM: NCI-H522 lung
19.6 µM: HCT-15 colon
76.3 µM: SR leukemia
34.3 µM: SK-MEL-5 melanoma
60.5 µM: ACHN renal
71.6 µM: MDA-N
42.9 µM: RPMI-8226 leukemia
> 100 µM: 786-0 renal | BT-549 breast | CAKI-1 renal | CCRF-CEM leukemia | DU-145 prostate | HCT-116 colon | HOP-62 NSCLC | K-562 leukemia | KM12 colon | M14 melanoma | MALME-3M melanoma | MCF7 breast | MDA-MB-231 breast | MOLT-4 leukemia | NCI-H460 lung | NCI/ADR-RES ovarian | OVCAR-3 ovarian | OVCAR-4 ovarian | OVCAR-5 ovarian | OVCAR-8 ovarian | PC-3 prostate | SF-268 CNS | SF-295 CNS | SK-OV-3 ovarian | SN12C renal | SW-620 colon | T-47D breast
60.3 µM: TK-10 renal
96.7 µM: NCI-H226 lung
78.2 µM: NCI-H23 lung
88.5 µM: IGROV1 ovarian
96.3 µM: U251 CNS
39.9 µM: SK-MEL-2 melanoma
79.8 µM: HT29 colon
66.6 µM: HOP-92 NSCLC

Cc1ccn2c(=O)cc(CN3CCOCC3)nc2c1
> 100 µM: 786-0 renal | A549 NSCLC | ACHN renal | BT-549 breast | CAKI-1 renal | CCRF-CEM leukemia | COLO 205 colon | DU-145 prostate | EKVX NSCLC | HCC-2998 colon | HCT-116 colon | HCT-15 colon | HL-60(TB) leukemia | HOP-62 NSCLC | HOP-92 NSCLC | HS 578T breast | HT29 colon | IGROV1 ovarian | K-562 leukemia | KM12 colon | LOX IMVI melanoma | M14 melanoma | MALME-3M melanoma | MCF7 breast | MDA-MB-231 breast | MDA-MB-435 | MDA-N | MOLT-4 leukemia | NCI-H226 lung | NCI-H23 lung | NCI-H460 lung | NCI-H522 lung | NCI/ADR-RES ovarian | OVCAR-3 ovarian | OVCAR-4 ovarian | OVCAR-5 ovarian | OVCAR-8 ovarian | PC-3 prostate | RPMI-8226 leukemia | SF-268 CNS | SF-295 CNS | SF-539 CNS | SK-MEL-2 melanoma | SK-MEL-28 melanoma | SK-OV-3 ovarian | SN12C renal | SNB-19 CNS | SNB-75 CNS | SR leukemia | SW-620 colon | TK-10 renal | U251 CNS | UACC-257 melanoma | UACC-62 melanoma | UO-31 renal
